What follows are compounds tested against T1, AKT1-E17K (Homo sapiens, UniProt P31749, E17K) (assay: NanoBRET Target Engagement (TE) Assay).
T1 construct: host or cells: HEK-293 (ATCC CRL-1573)
Type: cell-based
How it was run: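 Live cells transiently expressing NanoLuc-AKT1 E17K fusion, incubated 2 h with tracer and compound before substrate plus extracellular NanoLuc inhibitor were added. BRET read at 450/600 nm; EC50 from variable-slope sigmoidal fit of tracer displacement.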

T1 sequence (P31749 whole entry E17K): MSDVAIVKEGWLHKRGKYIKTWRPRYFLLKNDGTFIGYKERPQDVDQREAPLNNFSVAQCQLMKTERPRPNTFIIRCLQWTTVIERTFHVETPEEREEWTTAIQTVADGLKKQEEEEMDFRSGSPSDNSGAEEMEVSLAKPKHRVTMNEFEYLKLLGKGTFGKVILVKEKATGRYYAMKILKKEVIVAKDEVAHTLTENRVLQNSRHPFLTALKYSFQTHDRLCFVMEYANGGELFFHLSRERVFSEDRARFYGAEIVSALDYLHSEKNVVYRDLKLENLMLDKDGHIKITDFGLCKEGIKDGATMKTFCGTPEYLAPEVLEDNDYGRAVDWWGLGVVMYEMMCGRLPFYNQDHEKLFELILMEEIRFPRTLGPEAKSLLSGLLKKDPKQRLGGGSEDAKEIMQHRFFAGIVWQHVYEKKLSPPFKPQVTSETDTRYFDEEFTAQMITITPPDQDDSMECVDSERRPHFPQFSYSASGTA

SMILES	IC50 [nM]
Nc1ncccc1-c1nc2ccc(-c3ccc(Cl)cc3)nc2n1-c1ccc(CN2CCN(C(=O)c3ccc(C=O)c(O)c3)CC2)cc1 [Example 148, 4-(4-(4-(2-(2-aminopyridin-3-yl)-5-(4-chlorophenyl)-3H-imidazo[4,5-b]pyridin-3-yl)benzyl)piperazine-1-carbonyl)-2-hydroxybenzaldehyde]	> 600
Nc1ncccc1-c1nc2ccc(-c3ccc(Cl)cc3)nc2n1-c1ccc(CN2CCN(c3ccc(O)c(C=O)c3)CC2)cc1 [Example 149, 5-(4-(4-(2-(2-aminopyridin-3-yl)-5-(4-chlorophenyl)-3H-imidazo[4,5-b]pyridin-3-yl)benzyl)piperazin-1-yl)-2-hydroxybenzaldehyde]	> 600
Nc1ncccc1-c1nc2ccc(C3=CCCCC3)nc2n1-c1ccc(CN2CCN(C(=O)c3ccc(O)c(C=O)c3)CC2)cc1 [Example 150, 5-(4-(4-(2-(2-aminopyridin-3-yl)-5-(cyclohex-1-en-1-yl)-3H-imidazo[4,5-b]pyridin-3-yl)benzyl)piperazine-1-carbonyl)-2-hydroxybenzaldehyde]	60 to 600

The next lines start with the values.

IC50 [nM]	SMILES
> 600	Nc1ncccc1-c1nc2ccc(C3=CCCCC3)nc2n1-c1ccc(CN2CCN(C(=O)c3ccc(C=O)c(O)c3)CC2)cc1 [Example 151, 4-(4-(4-(2-(2-aminopyridin-3-yl)-5-(cyclohex-1-en-1-yl)-3H-imidazo[4,5-b]pyridin-3-yl)benzyl)piperazine-1-carbonyl)-2-hydroxybenzaldehyde]
60 to 600	Nc1ncccc1-c1nc2ccc(-c3ccccc3)nc2n1-c1ccc(CN2CCC3(CC2)CCN(C(=O)c2ccc(C=O)c(O)c2)CC3)cc1 [Example 152, 4-(9-(4-(2-(2-aminopyridin-3-yl)-5-phenyl-3H-imidazo[4,5-b]pyridin-3-yl)benzyl)-3,9-diazaspiro[5.5]undecane-3-carbonyl)-2-hydroxybenzaldehyde]
60 to 600	Nc1ncccc1-c1nc2ccc(-c3ccccc3)nc2n1-c1ccc(CN2CCC3(C2)CN(C(=O)c2ccc(C=O)c(O)c2)C3)cc1 [Example 153, 4-(6-(4-(2-(2-aminopyridin-3-yl)-5-phenyl-3H-imidazo[4,5-b]pyridin-3-yl)benzyl)-2,6-diazaspiro[3.4]octane-2-carbonyl)-2-hydroxybenzaldehyde]

— patent US20260365647A1, “AKT1 MODULATORS” (Alterome Therapeutics, Inc., priority 2022, published 2026)
